Data on 13 compounds can be found in patent US10179770B2, “Quinolines derivatives as novel anticancer agents” (GENOSCIENCE PHARMA, priority 2013, dated 2019).

The pEC50 is the EC50 on a negative log10 scale, so that one unit is a factor of ten. Low readings indicate a large EC50, high ones a small EC50. For orientation: viability means a read-out of living cells in per cent, often relative to untreated cells.

In one assay the test system is A-375. In words: EC50 determination in cancer cell lines. The format is cell-based, human. The procedure:
(§1) Compounds were added at different concentrations to each well, and cell cultures were incubated for 72 h. Vehicle (DMSO or H2O) was used as a control, and all compounds were tested in a constant percentage of vehicle. Cell outgrowth was measured using for adherent cells CellTiter […] Aqueous One Solution Cell Proliferation Assay (Promega) and for cell suspension, Sulforhodamine B colorimetric assay as described in Vichai et al. (Vichai, V. and Kirtikara, K. Nat. Protoc. 2006 (1) 1112-1116). Absorbance was measured using an Infinite F200 Pro or Sunrise TECAN plate reader.
(§2) The human melanoma cell line A375, colorectal carcinoma cell line HCT-116, hepatocellular carcinoma cell line HepG2 were cultured in Dulbecco's modified Eagle's medium supplemented with 10% fetal bovine serum and 1% Penicillin-Streptomycin. The human melanoma cell lines SK-MEL-28 and SK-MEL-5 were cultured in Minimum Essential Medium. The colorectal carcinoma cell lines HT-29 and Colo205 were respectively cultured in Mc Coy's and RPMI media. The human leukemia cell lines MV4-11 and KG-1 were cultured in Iscove's Modified Dulbecco's Media. The human leukemia cell line MOLM-14 was cultured in Minimum Essential Medium Alpha Medium supplemented with 10% Fetal Bovine Serum and 1% Penicillin-Streptomycin All culture media were supplemented with 10% fetal bovine serum and 1% Penicillin-Streptomycin except for MV4-11 cell line 20% fetal bovine serum and 1% Penicillin-Streptomycin. All the cell lines were maintained at 37° C. with 5% C02.
(§3) Briefly, adherent cells, A375, HCT-116, HepG2, SK-MEL-28, SK-MEL-5, HT-29 and Colo205 cells were respectively plated at 800, 5,000, 7,000, 2,500, 3,000-5,000, 5,000 or 5,000 cells per well onto 96-well plates in 90 μL of media per well and were allowed to grow overnight before the assay. For MV4-11 and KG-1 cells that grow in suspension, 40,000-60,000 cells were plated onto 96-well plates immediately before the assay. MOLM-14 cell line, that grow in suspension, 30,000 cells were plated onto 96-well plates immediately before the assay.
(§4) The cell growth measure was the same as described in example 51.
(§5) The experimental data are analyzed using a computer program, Graphpad Prism (GraphPad Software, Inc. La Jolla, Calif.) and EC50 values were determined as the dose of compound required to reduce absorbance values to 50% of the signal obtained for vehicle treated cell cultures and were a mean of at least two independent experiments except for EC50 values with (*) where […].

The subject of another assay is HepG2. In words: EC50 determination in cancer cell lines. The format is cell-based, human. On the procedure:
as §1, §2, §3, §4, §5

For assay [1], the system named is HCT-116. In words: EC50 determination in cancer cell lines. The class given is cell-based, human. On the procedure: as §1, §2
Briefly, adherent cells, A375, HCT-116, HepG2, SK-MEL-28, SK-MEL-5, HT-29 and Colo205 cells were respectively plated at 800, 5,000, 7,000, 2,500, 3,000-5,000, 5,000 or 5,000 cells per well onto 96-well plates in 90 μL of media per well and were allowed to grow overnight before the assay. For MV4-11 and KG-1 cells that grow in suspension, 40,000-60,000 cells were plated onto 96-well plates immediately before the assay. MOLM-14 cell line, that grow in suspension, 30,000 cells were plated onto 96-well plates immediately before the assay. […]
as §5

For assay [2], the system named is MOLM-14. In words: EC50 determination in cancer cell lines. The class given is cell-based. Particulars: Homo sapiens, 72 h. On the procedure: as §1, §2, §3, §4, §5
A further assay relates to A375. As to the kind of experiment: Cell proliferation assay at 10 μM. The format is cell-based, human. Particulars: Homo sapiens, read-out: Cell viability observed at 10 μM. The procedure: (§6) The human melanoma cell line A375 and colorectal carcinoma cell line HCT-116 were cultured in Dulbecco's modified Eagle's medium supplemented with 10% fetal bovine serum and 1% Penicillin-Streptomycin. The human leukemia cell line MOLM-14 was cultured in Minimum Essential Medium Alpha Medium supplemented with 10% Fetal Bovine Serum and 1% Penicillin-Streptomycin. All the cell lines were maintained at 37° C. with 5% CO2.
(§7) Briefly, adherent cells, A375 and HCT-116 cells were respectively plated at 800 or 5,000 cells per well onto 96-well plates in 90 μL of media per well and were allowed to grow overnight before the assay.
as §1
(§8) In each experiment, each point represents the average of two replicates in cell culture.
(§9) Results are presented in Table 1 below for concentrations of 10 μM of tested compounds.

The test system of assay [3] is HCT-116. In words: Cell proliferation assay at 10 μM. The class given is cell-based. Particulars: Homo sapiens, HCT-116, 72 h, read-out: Cell viability observed at 10 μM. The procedure:
as §6, §7, §1, §8, §9

Assay [4] relates to MOLM-14. In words: Cell proliferation assay at 10 μM. The class given is cell-based, human. To be noted: Homo sapiens, read-out: Cell viability observed at 10 μM. On the procedure:
as §6
For MOLM-14 cell line, which grows in suspension, 30,000 cells were plated onto 96-well plates immediately before the assay.
as §1, §8, §9

pEC50: −log10 of the molar value. Structures can show the parent of a compound that is named as a salt. Where two headings read alike, the source gives them in different places.

As for `CCN(CC)C1CCN(c2cc(-c3ccc4ccccc4c3)nc3ccccc23)CC1` [VI-5, 2-(2-naphtyl)-4-(4-N,N-diethylamino-piperidin-1-yl)quinoline], the pEC50 is 5.40 in the assay on A-375 (Homo sapiens, A-375, 72 h); 4.96 with HepG2 (Homo sapiens, HepG2, 72 h); 5.22 in the assay on HCT-116 [1] (Homo sapiens, HCT-116, 72 h); 5.30 in the assay on MOLM-14 [2].

As to `COc1ccc(-c2cc(N3CCC(NC(C)(C)C)CC3)c3ccccc3n2)cc1` [XV-8, 2-(4-methoxy-phenyl)-4-(4-N-tert-butylamino-piperidin-1-yl)quinoline dihydrochloride], the viability at 10 µM was 20 to 40% in the assay with A375 (A-375, 72 h); greater than 80% in the assay with HCT-116 [3]; less than 20% with MOLM-14 [4] (MOLM-14, 72 h). Also, the pEC50 in the assay on A-375 (Homo sapiens, A-375, 72 h) was 5.00; in the assay with HepG2 (Homo sapiens, HepG2, 72 h), 4.57; in the assay with HCT-116 [1] (Homo sapiens, HCT-116, 72 h), 4.77; with MOLM-14 [2], 5.52.

As to `CN(C)CCCNc1cc(-c2ccccc2)nc2ccccc12` [XL-2, N^1,N^1-dimethyl-N^3-(2-phenylquinoline-4-yl)propane-1,3-diamine trifluoroacetate salt], the viability at 10 µM with A375 (A-375, A375, 10 μM, 72 h, % of cell viability remaining) is less than 20%; in the assay with HCT-116 [3] (HCT-116, 10 μM, 72 h, % of cell viability remaining), 20 to 40%; in the assay with MOLM-14 [4] (MOLM-14, 10 μM, 72 h, % of cell viability remaining), less than 20%. For the same compound, the pEC50 in the assay with A-375 (Homo sapiens, A-375, 72 h) is 5.52; in the assay with HepG2 (Homo sapiens, HepG2, 72 h) it was 4.77; in the assay with HCT-116 [1] (Homo sapiens, HCT-116, 72 h), 5.30; in the assay on MOLM-14 [2] it was 5.52.

`CCN(CC)C1CCN(c2cc(-c3ccccc3)nc3cc(Cl)ccc23)CC1` [II-3, 7-chloro-2-phenyl-4-(4-N,N-diethylamino-piperidin-1-yl)quinoline]: the pEC50 with A-375 (Homo sapiens, A-375, 72 h) was 5.52; in the assay with HepG2 (Homo sapiens, HepG2, 72 h), 5.10; in the assay with HCT-116 [1] (Homo sapiens, HCT-116, 72 h), 5.40; in the assay on MOLM-14 [2] it was 5.30.

Take `CN(C)CCCNc1cc(-c2ccc3ccccc3c2)nc2ccccc12` [XLII-2, N^1,N^1-dimethyl-N^3-[2-(naphtalen-2-yl)quinoline-4-yl]propane-1,3-diamine hydrochloride salt]: the viability at 10 µM in the assay with A375 (A-375, 72 h) is less than 20%; with HCT-116 [3], less than 20%; in the assay on MOLM-14 [4] (MOLM-14, 72 h), less than 20%. The pEC50 in the assay with A-375 (Homo sapiens, A-375, 72 h) was 5.52; in the assay with HepG2 (Homo sapiens, HepG2, 72 h), 4.72; with HCT-116 [1] (Homo sapiens, HCT-116, 72 h), 4.96; in the assay on MOLM-14 [2], 5.40.

Turning to `CC(c1cc(-c2ccccc2)nc2ccccc12)N1CCC(NC(C)(C)C)CC1` (stereo not shown) [XXIII-2, 2-phenyl-4-{1-[4-N-tert-butylamino-piperidinyl]-eth-1-yl}quinoline dihydrochloride], the viability at 10 µM in the assay with A375 (A-375, 72 h) is less than 20%; in the assay with HCT-116 [3], 20 to 40%; in the assay with MOLM-14 [4] (MOLM-14, 72 h) it was less than 20%. The pEC50 in the assay with A-375 (Homo sapiens, 72 h) was 5.10; with HepG2 (Homo sapiens, 72 h), 4.74; in the assay on HCT-116 [1] (Homo sapiens, 72 h) it was 4.96; in the assay on MOLM-14 [2], 5.22.

Consider `CN(C)CCCNc1cc(-c2ccccc2)nc2ccccc12` [XLI-1, N^1,N^1-dimethyl-N^3-(2-phenylquinoline-4-yl)propane-1,3-diamine], for which the results for the pEC50 in the assay with A-375 (72 h), in the assay on HepG2 (72 h) and with HCT-116 [1] (72 h) were 5.70, 5.00 and 5.40, respectively.

For the compound `CCN(CC)C1CCN(Cc2cc(-c3ccccc3)nc3cc(Cl)ccc23)CC1` [XVII-6, 7-Chloro-2-phenyl-4-[4-(N,N-diethylamino)-piperidin-1-ylmethyl]quinoline dihydrochloride], the viability at 10 µM in the assay on A375 (A-375, 72 h) is less than 20%; in the assay on HCT-116 [3], less than 20%; with MOLM-14 [4] (MOLM-14, 72 h) it was less than 20%. Also, the pEC50 in the assay with A-375 (Homo sapiens, A-375, 72 h) is 5.52; in the assay on HepG2 (Homo sapiens, HepG2, 72 h) it was 5.10; with HCT-116 [1] (Homo sapiens, HCT-116, 72 h), 5.40; with MOLM-14 [2], 5.30.

Consider `CN(C)CCCNCc1cc(-c2ccccc2)nc2cc(Cl)ccc12` [XLIV-1, N^1,N^1-dimethyl-N^3-(7-chloro-2-phenylquinoline-4-ylmethyl)-propane-1,3-diamine], for which the pEC50 is 5.40 in the assay on A-375 (Homo sapiens, A-375, 72 h); 5.00 with HepG2 (Homo sapiens, HepG2, 72 h); 5.22 with HCT-116 [1] (Homo sapiens, HCT-116, 72 h); 5.22 in the assay on MOLM-14 [2].

Turning to `CC(NC1CCN(Cc2ccccc2)CC1)c1cc(-c2ccccc2)nc2cc(Cl)ccc12` (stereo not shown) [XXXV-2, 7-chloro-2-phenyl-4-{1-[(N-benzyl-piperidin-4-yl)amino]-eth-1-yl}quinoline hydrochloride salt], the viability at 10 µM with A375 (A-375, 72 h) is greater than 80%; with HCT-116 [3] it was greater than 80%; in the assay with MOLM-14 [4] (MOLM-14, 72 h), greater than 80%.

For the compound `CCN(CC)C1CCN(c2cc(-c3ccc(-c4ccccc4)cc3)nc3ccccc23)CC1` [IX-2, 2-(1,1′-biphenyl)-4-yl-4-(4-N,N-diethylamino-piperidin-1-yl)quinoline dihydrochloride], the viability at 10 µM is less than 20% in the assay with A375 (A-375, 72 h); less than 20% with HCT-116 [3]; less than 20% in the assay with MOLM-14 [4] (MOLM-14, 72 h). In addition, the pEC50 in the assay with A-375 (Homo sapiens, A-375, 72 h) is 5.52; with HepG2 (Homo sapiens, HepG2, 72 h) it was 4.89; in the assay on HCT-116 [1] (Homo sapiens, HCT-116, 72 h), 5.40; in the assay with MOLM-14 [2], 5.40.

With `CCN(CC)C1CCN(C(C)c2cc(-c3ccccc3)nc3cc(Cl)ccc23)CC1` (stereo not shown) [XVI-4, 7-Chloro-2-phenyl-4-{1-[4-(N,N-diethylamino)-piperidin-1-yl]-eth-1-yl}quinoline dihydrochloride], the viability at 10 µM in the assay on A375 (A-375, 72 h) was less than 20%; in the assay with HCT-116 [3] it was less than 20%; with MOLM-14 [4] (MOLM-14, 72 h), less than 20%. The pEC50 with A-375 (Homo sapiens, A-375, 72 h) is 5.40; with HepG2 (Homo sapiens, HepG2, 72 h), 4.89; in the assay with HCT-116 [1] (Homo sapiens, HCT-116, 72 h) it was 5.22; in the assay on MOLM-14 [2], 5.22.

Turning to `c1ccc(-c2cc(N3CCC(N4CCCCC4)CC3)c3ccccc3n2)cc1` [III-4, 2-phenyl-4-([1,4′]-bipiperidin-1′-yl)quinoline dihydrochloride], the viability at 10 µM with A375 (A-375, 72 h) is greater than 80%; with HCT-116 [3], greater than 80%; in the assay with MOLM-14 [4] (MOLM-14, 72 h), 60 to 80%.
